The record followed here is ChEMBL document CHEMBL1255208, “A class of novel conjugates of substituted purine and Gly-AA-OBzl: synthesis and evaluation of orally analgesic activity” (2010).

What all share (format): functional
In assay [1] the test system is Mus musculus. The assay is described as follows: Analgesic activity in mouse assessed as pain threshold variation at 25 umol/kg, po after 150 mins (RVb = 3.98 +/- 4.03 %).
For assay [2], the system named is Mus musculus. The assay is described as follows: Analgesic activity in mouse assessed as pain threshold variation at 25 umol/kg, po after 30 mins (RVb = -1 +/- 2.8 %).
In assay [3] the test system is Mus musculus. Briefly: Analgesic activity in mouse assessed as pain threshold variation at 25 umol/kg, po after 60 mins (RVb = -6.5 +/- 1.79 %).
Assay [4] concerns Mus musculus. The assay is described as follows: Analgesic activity in mouse assessed as pain threshold variation at 25 umol/kg, po after 120 mins (RVb = 0.69 +/- 1.98 %).
The test system of assay [5] is Mus musculus. The assay is described as follows: Analgesic activity in mouse assessed as pain threshold variation at 25 umol/kg, po after 180 mins (RVb = -5.10 %).
In assay [6] the test system is Mus musculus. The assay is described as follows: Analgesic activity in mouse assessed as pain threshold variation at 25 umol/kg, po after 90 mins (RVb = 0.2 +/- 3.75 %).

Regarding `O=C(CN(c1nc(Cl)nc2c1ncn2C1CCCCO1)C1CC1)N[C@@H](CC(=O)OCc1ccccc1)C(=O)OCc1ccccc1` (stereo partly drawn), the Activity is recorded as 0.06% in assay [1]; 31.81% in assay [2]; 38.15% in assay [3]; 7.82% in assay [4]; 0.03% in assay [5]; 25.07% in assay [6].

Take `O=C(CN(c1nc(Cl)nc2c1ncn2C1CCCCO1)C1CC1)N[C@@H](CCC(=O)OCc1ccccc1)C(=O)OCc1ccccc1` (stereo partly drawn): the Activity was found to be 14.14% in assay [1]; 32.61% in assay [2]; 34.74% in assay [3]; 20.71% in assay [4]; 10.93% in assay [5]; 25.2% in assay [6].

In the case of `CC(C)(C)OC(=O)NCCCC[C@H](NC(=O)CN(c1nc(Cl)nc2c1ncn2C1CCCCO1)C1CC1)C(=O)OCc1ccccc1` (stereo partly drawn), the Activity in assay [1] is recorded as 17.2%; in assay [2], 18.33%; in assay [3], 32.66%; in assay [4], 28.39%; in assay [5] it was 10.06%; in assay [6], 32.85%.

`O=C(CN(c1nc(Cl)nc2c1ncn2C1CCCCO1)C1CC1)N[C@@H](Cc1ccccc1)C(=O)OCc1ccccc1` (stereo partly drawn): the Activity amounted to 3.49% in assay [1]; 39.2% in assay [2]; 45.54% in assay [3]; 26.29% in assay [4]; 1.79% in assay [5]; 37.73% in assay [6].

Regarding `O=C(CN(c1nc(Cl)nc2c1ncn2C1CCCCO1)C1CC1)N[C@@H](Cc1c[nH]c2ccccc12)C(=O)OCc1ccccc1` (stereo partly drawn), the Activity came out at 11.45% in assay [1]; 43.53% in assay [2]; 51.9% in assay [3]; 22.58% in assay [4]; 5.15% in assay [5]; 38.93% in assay [6].

As to `O=C(CN(c1nc(Cl)nc2c1ncn2C1CCCCO1)C1CC1)N[C@@H](Cc1ccc(O)cc1)C(=O)OCc1ccccc1` (stereo partly drawn), the Activity is 8.71% in assay [1]; 20.53% in assay [2]; 35.82% in assay [3]; 17.44% in assay [4]; 12.02% in assay [5]; 36.45% in assay [6].

Take `CSCC[C@H](NC(=O)CN(c1nc(Cl)nc2c1ncn2C1CCCCO1)C1CC1)C(=O)OCc1ccccc1` (stereo partly drawn): the Activity in assay [1] is 17.47%; in assay [2] it was 30.04%; in assay [3], 40.97%; in assay [4], 28.66%; in assay [5], 12.89%; in assay [6] it was 42.7%.

Turning to `O=C(OCc1ccccc1)[C@@H]1CCCN1C(=O)CN(c1nc(Cl)nc2c1ncn2C1CCCCO1)C1CC1` (stereo partly drawn), the Activity is 7.85% in assay [1]; 32.25% in assay [2]; 36.73% in assay [3]; 17.49% in assay [4]; 6.63% in assay [5]; 23.31% in assay [6].

Regarding `O=C(CN(c1nc(Cl)nc2c1ncn2C1CCCCO1)C1CC1)N[C@@H](CO)C(=O)OCc1ccccc1` (stereo partly drawn), the Activity in assay [1] is recorded as 18.32%; in assay [2], 27.77%; in assay [3], 46.71%; in assay [4] it was 29.2%; in assay [5] it was 12.85%; in assay [6], 32.17%.

In the case of `C[C@@H](O)[C@H](NC(=O)CN(c1nc(Cl)nc2c1ncn2C1CCCCO1)C1CC1)C(=O)OCc1ccccc1` (stereo partly drawn), the Activity amounted to 6.53% in assay [1]; 23.61% in assay [2]; 28.36% in assay [3]; 10.91% in assay [4]; 2.34% in assay [5]; 23.38% in assay [6].

Consider `CC(C)[C@H](NC(=O)CN(c1nc(Cl)nc2c1ncn2C1CCCCO1)C1CC1)C(=O)OCc1ccccc1` (stereo partly drawn), for which the Activity turned out to be 21.08% in assay [1]; 21.83% in assay [2]; 34.85% in assay [3]; 25.79% in assay [4]; 5.65% in assay [5]; 30.14% in assay [6].

Regarding `O=C(O)CN(c1nc(Cl)nc2c1ncn2C1CCCCO1)C1CC1` (stereo not drawn), the Activity in assay [1] was determined as 3.12%; in assay [2], 5.21%; in assay [3] it was 15.24%; in assay [4], 7.68%; in assay [5], 3.41%; in assay [6], 8.22%.

For `NC(=O)C[C@H](NC(=O)CN(c1nc(Cl)nc2c1ncn2C1CCCCO1)C1CC1)C(=O)OCc1ccccc1` (stereo partly drawn), the Activity in assay [1] is listed as 21.71%; in assay [2] it was 34.53%; in assay [3], 30.54%; in assay [4] it was 29.15%; in assay [5], 15.45%; in assay [6], 34.95%.

As to `NC(=O)CC[C@H](NC(=O)CN(c1nc(Cl)nc2c1ncn2C1CCCCO1)C1CC1)C(=O)OCc1ccccc1` (stereo partly drawn), the Activity turned out to be 10.72% in assay [1]; 46.96% in assay [2]; 39.4% in assay [3]; 22.34% in assay [4]; 7.71% in assay [5]; 37.82% in assay [6].

As to `O=C(CN(c1nc(Cl)nc2c1ncn2C1CCCCO1)C1CC1)N[C@@H](Cc1cnc[nH]1)C(=O)OCc1ccccc1` (stereo partly drawn), the Activity in assay [1] stood at 5.31%; in assay [2] it was 24.98%; in assay [3] it was 36.43%; in assay [4], 10.16%; in assay [5], 4.38%; in assay [6], 14.45%.

As to `CC[C@H](C)[C@H](NC(=O)CN(c1nc(Cl)nc2c1ncn2C1CCCCO1)C1CC1)C(=O)OCc1ccccc1` (stereo partly drawn), the Activity in assay [1] is 16.43%; in assay [2] it was 25.56%; in assay [3], 27.35%; in assay [4], 20.42%; in assay [5], 9.15%; in assay [6] it was 22.57%.

On to `CC(C)C[C@H](NC(=O)CN(c1nc(Cl)nc2c1ncn2C1CCCCO1)C1CC1)C(=O)OCc1ccccc1` (stereo partly drawn), for which the Activity in assay [1] is given as 6.47%; in assay [2] it was 26.2%; in assay [3] it was 34.19%; in assay [4], 12.79%; in assay [5] it was 0.04%; in assay [6], 28.22%.

For `CCOC(=O)CN(c1nc(Cl)nc2c1ncn2C1CCCCO1)C1CC1` (stereo not drawn), the Activity in assay [1] is 11.85%; in assay [2], 9.92%; in assay [3], 22.64%; in assay [4] it was 14.91%; in assay [5] it was 5.33%; in assay [6], 13.04%.
